According to patent US20040002493A1, “Benzoic acid derivatives and pharmaceutical agents comprising the same as active ingredient” (priority 2000, published 2004):

How the values were obtained:
Test in all cases: Binding assay using cell expressing the prostanoid receptor subtypes, [3H]-PGE2 competition on CHO membrane fraction
EP1 receptor = target: T1, EP1 receptor (Mus musculus, UniProt P35375); conditions: mouse EP1, [3H]-PGE2 2.5 nM, pH 6.0
T1 construct: expressed in transfected cells; host or cells: CHO cells
T1 sequence (P35375 1-405): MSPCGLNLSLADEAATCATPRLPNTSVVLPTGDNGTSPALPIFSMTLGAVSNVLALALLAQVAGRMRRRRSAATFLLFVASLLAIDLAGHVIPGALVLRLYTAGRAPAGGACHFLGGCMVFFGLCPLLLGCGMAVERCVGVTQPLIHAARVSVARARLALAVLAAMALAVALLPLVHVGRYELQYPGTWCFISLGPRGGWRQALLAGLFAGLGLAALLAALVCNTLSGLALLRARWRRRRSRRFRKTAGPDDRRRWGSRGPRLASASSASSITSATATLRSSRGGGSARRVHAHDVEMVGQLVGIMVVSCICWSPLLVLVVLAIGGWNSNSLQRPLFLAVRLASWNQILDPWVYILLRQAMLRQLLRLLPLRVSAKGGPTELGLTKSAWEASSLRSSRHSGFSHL
Procedure: (§1) (i) Binding Assay Using Cell Expressing the Prostanoid Receptor Subtypes
(§2) The preparation of membrane fraction was carried out according to the method of Sugimoto et al [J. Biol. Chem. 267, 6463-6466 (1992)], using CHO cell expressing prostanoid receptor subtypes (mouse EP1, EP2, EP3α, and EP4).
(§3) The standard assay mixture containing membrane fraction (50 μL), [^3H]-PGE2 in a final volume of 150 μL was incubated for 1 hour at room temperature. The reaction was terminated by addition of 3 mL of ice-cold buffer. The mixture was rapidly filtered through a glass filter (GF/B) under reduced pressure. The radioactivities associated with the filters were measured by liquid scintillation counter.
(§4) Kd and Bmax values were determined from Scatchard plots [Ann. N.Y. Acad. Sci. 51, 660(1949)]. Non-specific binding was determined as the amount bound in the presence of an excess (2.5 μM) of unlabeled PGE2. In the experiment for competition of specific [^3H]-PGE2 binding assay, [^3H]-PGE2 was added at a concentration of 2.5 nM and a test compound of the present invention was added at various concentrations. The following buffer was used in all reactions.
(§5) Buffer: 10 mM potassium phosphate (pH 6.0), 1 mM EDTA, 10 mM MgCl2, 0.1 M NaCl.
(§6) The inhibition constant (Ki) (μM) of each compound was calculated by the following equation.

EP2 receptor = target: T2, EP2 receptor (Mus musculus, UniProt Q62053); conditions: mouse EP2, [3H]-PGE2 2.5 nM, pH 6.0
T2 construct: expressed in transfected cells; host or cells: CHO cells
T2 sequence (Q62053 whole entry): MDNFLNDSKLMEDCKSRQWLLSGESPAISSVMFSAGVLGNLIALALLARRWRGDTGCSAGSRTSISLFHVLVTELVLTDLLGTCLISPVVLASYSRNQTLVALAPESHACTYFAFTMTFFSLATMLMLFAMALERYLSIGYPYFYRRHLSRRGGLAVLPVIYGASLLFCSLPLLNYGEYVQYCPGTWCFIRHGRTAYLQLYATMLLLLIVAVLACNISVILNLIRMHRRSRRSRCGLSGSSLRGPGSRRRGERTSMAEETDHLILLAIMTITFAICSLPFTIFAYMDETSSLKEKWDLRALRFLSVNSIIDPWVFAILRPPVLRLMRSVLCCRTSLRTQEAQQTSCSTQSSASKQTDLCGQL
Procedure: as §1, §2, §3, §4, §5, §6

EP3 receptor = target: T3, EP3 receptor (Mus musculus, UniProt P30557); conditions: mouse EP3α, [3H]-PGE2 2.5 nM, pH 6.0
T3 construct: expressed in transfected cells; host or cells: CHO cells
T3 sequence (P30557 1-365): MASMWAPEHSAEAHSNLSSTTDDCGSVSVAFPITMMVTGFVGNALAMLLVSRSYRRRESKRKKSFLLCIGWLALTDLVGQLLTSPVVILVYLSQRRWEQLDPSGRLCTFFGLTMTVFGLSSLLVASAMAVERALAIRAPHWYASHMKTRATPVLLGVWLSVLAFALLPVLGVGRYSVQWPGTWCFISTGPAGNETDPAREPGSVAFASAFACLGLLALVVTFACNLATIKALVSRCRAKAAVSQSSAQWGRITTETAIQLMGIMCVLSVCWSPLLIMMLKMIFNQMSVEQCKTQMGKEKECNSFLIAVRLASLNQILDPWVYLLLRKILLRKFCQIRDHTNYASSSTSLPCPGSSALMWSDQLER
Procedure: as §1, §2, §3, §4, §5, §6

EP4 receptor = target: T4, EP4 receptor (Mus musculus, UniProt P32240); conditions: mouse EP4, [3H]-PGE2 2.5 nM, pH 6.0
T4 construct: expressed in transfected cells; host or cells: CHO cells
T4 sequence (P32240 whole entry): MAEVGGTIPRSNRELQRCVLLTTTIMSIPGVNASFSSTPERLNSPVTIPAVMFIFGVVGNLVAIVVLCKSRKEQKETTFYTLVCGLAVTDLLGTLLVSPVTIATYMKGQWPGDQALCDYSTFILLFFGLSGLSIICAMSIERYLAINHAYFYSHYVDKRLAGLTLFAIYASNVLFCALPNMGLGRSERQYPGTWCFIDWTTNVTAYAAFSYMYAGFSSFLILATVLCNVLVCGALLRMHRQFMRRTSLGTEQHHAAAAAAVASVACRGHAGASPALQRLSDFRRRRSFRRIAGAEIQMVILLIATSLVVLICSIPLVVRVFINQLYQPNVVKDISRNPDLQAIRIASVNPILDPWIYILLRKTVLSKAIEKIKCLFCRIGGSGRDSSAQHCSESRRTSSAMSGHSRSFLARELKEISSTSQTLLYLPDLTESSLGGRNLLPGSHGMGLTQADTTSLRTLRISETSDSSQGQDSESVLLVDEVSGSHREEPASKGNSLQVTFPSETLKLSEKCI
Procedure: as §1, §2, §3, §4, §5, §6

Ki (EP1 receptor): 1.5 µM | Ki (EP2 receptor): 8 µM | Ki (EP3 receptor): 0.06 µM | Ki (EP4 receptor): 0.01 µM
Structure (SMILES): CC(C(=O)Nc1ccccc1Cc1ccccc1C(=O)O)c1ccc(OCc2ccccc2)cc1 (stereo not shown) [2(1), 2-[2-[2-(4-Benzyloxyphenyl)propanoylamino]phenyl]methylbenzoic Acid]
